Where “and” joins values, the source holds several entries; their conditions need not be identical. Identical values can stand only once. Entries after “also recorded” stand apart in the source; their conditions may differ. Like-named read-outs stand apart in the source and are kept apart here.
Legend:
procaspase-3 mutant ADD = test: Activation of safety catch mutant procaspase-3 (ADD); assay type: biochemical, Homo sapiens
Text: Safety catch mutations. The DDD procaspase-3 safety catch (SEQ ID NO:1; SEQ ID NO:2; SEQ ID NO:9) was mutated to ADD (SEQ ID NO:3, SEQ ID NO:4, SEQ ID NO:10), DAD (SEQ ID NO:5, SEQ ID NO:6, SEQ ID NO:11) and DDA (SEQ ID NO:7, SEQ ID NO:8, SEQ ID NO:12) using the quickchange strategy with the following primers, gacagacagtggtgttgCGgatgacatggcgtgtcataaaatacc (SEQ ID NO:13), gacagacagtggtgttgatgCtgacatggcgtgtcataaaatacc (SEQ ID NO:14) and gacagacagtggtgttgatgatgCcatggcgtgtcataaaatacc (SEQ ID NO:15) respectively. See also FIG. 9 and FIG. 10. Mutated bases are underlined and capitalized. All mutant plasmids were sequenced to ensure proper sequence throughout the gene. All mutant plasm ids were expressed exactly as wild-type procaspase-3 as described above. […] The plate was then incubated for 12 hours at 37° C. 10 μL of a 2 mM solution of Ac-DEVD-pNA (SEQ ID NO: 28) in caspase assay buffer was then added to each well. The plate was read every 2 minutes at 405 nm for 2 hours in a Spectra Max Plus 384 well plate reader. The slope of the linear portion for each well was determined and the fold increase in activity for each mutant was calculated.

active caspase-3 = active caspase-3 (Homo sapiens (Human), UniProt P42574); test: Effect on fully processed caspase-3 enzyme; assay type: biochemical
Sequence of active caspase-3 (P42574 29-175): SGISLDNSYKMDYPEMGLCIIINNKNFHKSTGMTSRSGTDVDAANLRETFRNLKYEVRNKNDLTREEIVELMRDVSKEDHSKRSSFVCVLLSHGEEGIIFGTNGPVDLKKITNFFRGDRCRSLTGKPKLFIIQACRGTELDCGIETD
Sequence of active caspase-3 (P42574 176-277): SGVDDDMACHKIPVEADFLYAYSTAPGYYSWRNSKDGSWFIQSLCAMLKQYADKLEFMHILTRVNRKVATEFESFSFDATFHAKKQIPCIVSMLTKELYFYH
Description: Activation curves. The dose dependence of procaspase-3 activators was determined by adding various concentrations of compound to 90 μL of a 50 ng/mL procaspase-3, active caspase-3, procaspase-7 or active caspase-7 in caspase assay buffer in a 96-well plate. The plate was then incubated for 12 hours at 37° C. 10 μL of a 2 mM solution of Ac-DEVD-pNA (SEQ ID NO: 28) in caspase assay buffer was then added to each well. The plate was read every 2 minutes at 405 nm for 2 hours in a Spectra Max Plus 384 well plate reader. The slope of the linear portion for each well was determined and the fold increase in activation from non-treated control wells was calculated.

procaspase-3 = procaspase-3 (Homo sapiens (Human), UniProt P42574); test: Effect of pH on PAC-1 activation of procaspase-3; assay type: biochemical; settings: low pH values
Sequence of procaspase-3 (P42574 whole entry): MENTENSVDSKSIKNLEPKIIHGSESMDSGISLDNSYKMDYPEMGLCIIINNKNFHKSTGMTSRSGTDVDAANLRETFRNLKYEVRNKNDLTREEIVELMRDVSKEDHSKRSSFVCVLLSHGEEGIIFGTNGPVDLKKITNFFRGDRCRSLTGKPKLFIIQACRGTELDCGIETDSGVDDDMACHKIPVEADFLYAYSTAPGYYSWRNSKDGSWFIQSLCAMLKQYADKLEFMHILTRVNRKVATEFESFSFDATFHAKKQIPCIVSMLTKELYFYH
Description: The plate was then incubated for 12 hours at 37° C. 10 μL of a 2 mM solution of Ac-DEVD-pNA (SEQ ID NO: 28) in caspase assay buffer was then added to each well. […] The slope of the linear portion for each well was determined and the fold increase in activation for each pH value was calculated.

[1] = tested on: NCI-H226 lung cancer cell line; test: Cell death IC50 (MTS) in NCI-H226; assay type: cell-based; settings: Homo sapiens, NCI-H226, 72 h, read-out: IC50 for cell death induction, NCI-H226
HL-60 cells [2] = test: Cell death induction IC50 (MTS) in HL-60; assay type: cell-based, human
[3] = tested on: white blood cells derived from the bone marrow of a healthy human donor; test: Cell death in normal white blood cells; assay type: cell-based; settings: relative to cancer cell lines
[4] = tested on: cells from adjacent non-cancerous tissue; test: Cell death in cells from adjacent non-cancerous colon tissue; assay type: cell-based, human
Text: To test this direct, small molecule-mediated procaspase-3 activation strategy in clinical isolates of cancer, we obtained freshly resected colon tumors (together with adjacent non-cancerous tissue) from 18 patients from Carle Foundation Hospital (Urbana, Ill.).

[5] = tested on: caspase-3 like activity in HL-60 cells; test: Caspase-3 like activity in HL-60 cells; assay type: cell-based, human; settings: HL-60, 100 μM PAC-1
Description: In vivo determination of caspase-3 like activity. The amount of caspase-3 like protease activity was determined by the amount of Ac-DEVD-pNA (N-acetyl-ASP-Glu-Val-Asp-p-nitroanilide) (SEQ ID NO: 28) cleaved per minute by cell lysates. […] 50 μL of HL-60 cells at a concentration of 5×10^6 cells/mL were added to the plate and incubated for various times. After the incubation period, the plate was spun at 1000×g for 5 minutes to pellet the cells. The cells were then washed with 100 μL of PBS and resuspended in 150 μL of ice cold Caspase Assay Buffer. Each well was then sonicated to lyse the cells. 90 μL of cell lysate was transferred from each well into a new plate. Ac-DEVD-pNA (SEQ ID NO: 28) was added into each well to give a final concentration of 200 μM. […] The slope of the linear portion for each well was determined and the amount of Ac-DEVD-pNA (SEQ ID NO: 28) cleaved per minute was calculated.

HL-60 cells [6] = test: Annexin V staining (phosphatidylserine exposure); assay type: cell-based, human
Description: Cells were harvested by centrifugation and washed twice in PBS. The cells were then washed in AnnexinV binding buffer (10 mM HEPES, 140 mM NaCl, 2.5 mM CaCl2, pH 7.4) and resuspended in 100 μL of Annexin V binding buffer. 5 μL of annexin V, Alexa Fluor 488 conjugate was added and the tubes were incubated at room temperature for 15 minutes protected from light. 400 μL of Annexin V binding buffer was then added, followed by the addition of 1 μL of a 1 mg/mL solution of propidium iodide. The fluorescent intensity of each cell was determined by flow cytometry at 525 nm (green channel) and 675 nm (red channel). At least 50,000 cells were analyzed in each experiment.

PARP-1 = PARP-1 (Homo sapiens (Human), UniProt P09874); test: Control experiment: direct inhibition of PARP-1 enzymatic activity; assay type: biochemical; settings: control experiments
Sequence of PARP-1 (P09874 whole entry, species assumed): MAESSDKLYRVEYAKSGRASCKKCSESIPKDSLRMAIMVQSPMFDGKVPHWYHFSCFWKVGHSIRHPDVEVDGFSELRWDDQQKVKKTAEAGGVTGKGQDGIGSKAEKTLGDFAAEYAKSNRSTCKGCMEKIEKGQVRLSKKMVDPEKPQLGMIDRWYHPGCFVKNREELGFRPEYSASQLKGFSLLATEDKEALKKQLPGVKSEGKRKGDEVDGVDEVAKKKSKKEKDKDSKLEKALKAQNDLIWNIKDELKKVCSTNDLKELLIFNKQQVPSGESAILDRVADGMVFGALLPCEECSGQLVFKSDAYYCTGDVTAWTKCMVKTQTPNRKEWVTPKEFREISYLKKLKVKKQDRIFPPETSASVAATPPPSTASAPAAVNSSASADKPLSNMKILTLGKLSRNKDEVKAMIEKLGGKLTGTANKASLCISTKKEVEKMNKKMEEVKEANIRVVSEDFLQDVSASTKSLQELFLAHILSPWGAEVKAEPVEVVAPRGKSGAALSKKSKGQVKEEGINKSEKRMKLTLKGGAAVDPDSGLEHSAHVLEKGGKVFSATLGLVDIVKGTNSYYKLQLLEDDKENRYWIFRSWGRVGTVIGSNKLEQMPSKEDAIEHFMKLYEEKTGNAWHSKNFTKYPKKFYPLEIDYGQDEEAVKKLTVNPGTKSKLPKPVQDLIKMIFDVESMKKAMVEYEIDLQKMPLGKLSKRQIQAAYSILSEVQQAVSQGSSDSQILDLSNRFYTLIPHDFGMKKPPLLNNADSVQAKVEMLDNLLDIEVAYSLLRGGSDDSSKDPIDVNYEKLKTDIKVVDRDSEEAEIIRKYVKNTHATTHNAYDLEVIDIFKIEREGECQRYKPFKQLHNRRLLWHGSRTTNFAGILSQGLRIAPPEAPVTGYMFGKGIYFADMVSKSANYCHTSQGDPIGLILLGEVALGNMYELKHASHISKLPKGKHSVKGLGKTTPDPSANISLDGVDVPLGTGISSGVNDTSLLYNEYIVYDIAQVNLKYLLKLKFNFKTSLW

[7] = tested on: NCI-H226 (lung cancer) xenograft tumors; test: NCI-H226 subcutaneous xenograft, oral gavage; assay type: in vivo, mice; settings: oral gavage once a day for 21 days, 50 or 100 mg/kg
[8] = tested on: NCI-H226 (lung cancer) cells injected i.v.; test: NCI-H226 i.v. injection lung model, oral gavage; assay type: in vivo, mice; settings: 100 mg/kg oral gavage days 1-4 and 7-11, 28 days
HL-60 cells [9] = test: Apoptosis induction assay in HL-60 cells, 72 hrs (Table 6); assay type: cell-based; settings: Homo sapiens
Description: Compounds DX1-DX17 were tested using the HL-60 cell line for the ability to effect apoptosis, and IC50 values were determined. Activity levels of compounds from assays of 72 hrs duration with HL-60 cells are shown in Table 6 and along with structures in FIG. 12.

procaspase-7 = procaspase-7 (Homo sapiens (Human), UniProt P55210); settings: read-out: EC50 for activation of procaspase-7
Sequence of procaspase-7 (P55210 whole entry): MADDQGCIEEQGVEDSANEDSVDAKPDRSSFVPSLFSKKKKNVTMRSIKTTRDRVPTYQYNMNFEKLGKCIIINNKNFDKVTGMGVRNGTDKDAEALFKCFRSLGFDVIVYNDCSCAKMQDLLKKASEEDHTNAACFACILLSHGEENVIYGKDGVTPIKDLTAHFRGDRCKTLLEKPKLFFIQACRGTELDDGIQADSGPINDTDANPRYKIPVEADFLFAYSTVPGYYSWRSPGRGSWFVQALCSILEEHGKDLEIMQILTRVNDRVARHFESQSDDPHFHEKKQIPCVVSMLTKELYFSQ

[10] = tested on: MCF-7, breast cancer cells; test: Cell death IC50 in MCF-7; settings: Homo sapiens, MCF7, read-out: IC50 for death induction, MCF-7
Description: Determination of IC50 values in various cell lines. 50 μL of media containing various concentrations of PAC-1 or etoposide was added to each well of a 96-well plate except control wells, which contained only DMSO. […] The plates were then incubated at 37° C. for approximately one hour until the colored product formed.

## C=CCc1cccc(/C=N/NC(=O)CN2CCN(Cc3ccccc3)CC2)c1O [PAC-1]
procaspase-3 mutant ADD
  EC50: 131 µM
Active caspase-3
  effect on catalytic activity of fully processed caspase-3 enzyme: no effect
procaspase-3
  effect of PAC-1 on procaspase-3 at low pH: abolished
[1]
  IC50: 0.35 µM
HL-60 cells [2]
  cell death induction in cancer cells in culture (in words): induce death in cancer cells
HL-60 cells [2]; Homo sapiens, HL-60, Table 3, read-out: IC50 (μM) for death induction in HL-60 cells
  IC50: 0.92 µM
[3]
  potency/toxicity in normal white blood cells: comparatively less toxic; also recorded: markedly less potent
[4]; Homo sapiens, read-out: PAC-1, IC50, Normal (adjacent non-cancerous tissue), per patient, 18 patients
  IC50: 5.02 to 9.98 µM
[4]; read-out: PAC-1, IC50, Normal (adjacent non-cancerous tissue), per patient, 18 patients
  IC50: 6.88 µM and 6.28 µM and 7.34 µM and 5.67 µM and 6.54 µM and 9.98 µM and 5.94 µM and 5.63 µM and 5.5 µM and 7.58 µM and 5.96 µM and 5.02 µM and 5.17 µM and 6.39 µM and 6.78 µM and 9.79 µM and 6.61 µM and 9.5 µM
[5]
  time to 50% activation of caspase-3-like activity: over 2 hours
HL-60 cells [6]; 5 μM
  effectiveness in Annexin-V assay: effective
HL-60 cells [6]; HL-60, 20 h, 100 μM
  phosphatidylserine exposure on the cell membrane: considerable phosphatidylserine exposure
PARP-1
  direct inhibition of enzymatic activity of PARP-1: does not directly inhibit
[7]
  tumor growth, NCI-H226 xenograft: significantly retards tumor growth in a dose-dependent manner
[8]
  lung tumor mass, NCI-H226 i.v. injection model: clear difference; also recorded: almost no visible gray matter
HL-60 cells [9]
  IC50: 2.8 µM
procaspase-7
  EC50: 4.5 µM
[10]
  IC50: > 75 µM

From patent US10166229B2, “Compounds and methods for the treatment of cancer” (The Board of Trustees of the University of Illinois, priority 2005, dated 2019)
